According to the supplement of paper PMC11208160:

Assay: recombinant barcode read abundance after kanamycin selection (control-corrected) (log10(CPM+1)); higher = more efficient recombination; sequences stand for … in AGTGCAGAGAAAATCGGCCAGTTTTCTCTGCCTGCAGTCCGCATGCCGT…AGATTTATGCAGCGGACTGCCTTTCTCCCAAAGTGATAAACCGGACAGTATCATGGACCGGTTTTCCCGGTAATCCGTATTTGCAAGGTTGGTTTCACT; site = the 11-nt target
Method in brief: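 For this pooled screen, each oligo contained a promoter, a target, a barcode and the J23119-driven first 104 bases of the bridge RNA. Gibson cloning placed it into a vector supplying the remaining 73 bp and a T7-inducible recombinase, and the pool was co-electroporated into E. coli with a donor plasmid. Recombination efficiency is derived from barcode counts per million at recombinant junctions after averaging and control correction, and is expressed on a log scale as log10(CPM+1), with selection on chloramphenicol/ampicillin/kanamycin plus 0.1 mM IPTG against a chloramphenicol/ampicillin LB agar control.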
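Note: IS621 recombinase and bridge RNA in Escherichia coli cells.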

Row | Sequence | recombinant barcode read abundance (log10)
1 | GTGTGTACTTGGGTTCTAACCTGTTGCCT (site GTGTGTACTAG) | 1.21
2 | GTGTGTACTTGGGTTCTAACCTGTTGCCT (site GTGTGTCCTAG) | 0.101
3 | GTGTGTACTTGGGTTCTAACCTGTTGCCT (site GTGTGTGCTAG) | 0.24
4 | GTGTGTACTTGGGTTCTAACCTGTTGCCT (site GTGTGTTCTAG) | 0.0215
5 | GTGTGTGCTTGGGTTCTAACCTGTTGCCT (site GTGTGTACTAG) | 0.821
6 | GTGTGTGCTTGGGTTCTAACCTGTTGCCT (site GTGTGTCCTAG) | 0.0466
7 | GTGTGTGCTTGGGTTCTAACCTGTTGCCT (site GTGTGTGCTAG) | 1.44
8 | GTGTGTGCTTGGGTTCTAACCTGTTGCCT (site GTGTGTTCTAG) | 0.0513
9 | GTGTGTTCTTGGGTTCTAACCTGTTGCCA (site GTGTGTTCTTG) | 0.336
10 | GTGTGTTCTTGGGTTCTAACCTGTTGCCA (site TTGTGTTCTTA) | 0.0943
11 | GTTACAACTTGGGTTCTAACCTGTTGCCT (site CTTACGACTAG) | 0.0197
12 | GTTACAACTTGGGTTCTAACCTGTTGCCT (site GTTACAACTAG) | 0.263
13 | GTTACGGCTTGGGTTCTAACCTGTTGCCT (site GTTACGGCTAG) | 0.0907
14 | GTTACGGCTTGGGTTCTAACCTGTTGCCT (site GTTCCGGCTAG) | 0.0623
15 | GTTACGGCTTGGGTTCTAACCTGTTGCCT (site GTTGCGGCTAG) | 0.0497
16 | GTTACGGCTTGGGTTCTAACCTGTTGCCT (site GTTTCGGCTAG) | 0
17 | GTTAGAGCTTGGGTTCTAACCTGTTGCCT (site GTTAGAGCTAG) | 1.32
18 | GTTAGAGCTTGGGTTCTAACCTGTTGCCT (site GTTCGAGCTAG) | 0.235
19 | GTTAGAGCTTGGGTTCTAACCTGTTGCCT (site GTTGGAGCTAG) | 0.0737
20 | GTTAGAGCTTGGGTTCTAACCTGTTGCCT (site GTTTGAGCTAG) | 0.225
21 | GTTAGGCCTTGGGTTCTAACCTGTTGCCT (site GATAGGCCTAG) | 0.0232
22 | GTTAGGCCTTGGGTTCTAACCTGTTGCCT (site GTTAGGCCTAG) | 0.292

Row | Sequence | recombinant barcode read abundance (log10)
23 | GTTCAACCTTGGGTTCTAACCTGTTGCCT (site GATCAACCTAG) | 0.242
24 | GTTCAACCTTGGGTTCTAACCTGTTGCCT (site GCTCAACCTAG) | 0.154
25 | GTTCAACCTTGGGTTCTAACCTGTTGCCT (site GGTCAACCTAG) | 0.0287
26 | GTTCAACCTTGGGTTCTAACCTGTTGCCT (site GTTCAACCTAG) | 1.48
27 | GTTCCTCCTTGGGTTCTAACCTGTTGCCT (site GTTCCTCCTAG) | 0.823
28 | GTTCCTCCTTGGGTTCTAACCTGTTGCCT (site GTTCCTGCTAG) | 0.0108
29 | GTTGAGTCTTGGGTTCTAACCTGTTGCGT (site CTTGAGCCTAC) | 0.0835
30 | GTTGAGTCTTGGGTTCTAACCTGTTGCGT (site GTTGAGTCTAC) | 1.87
31 | GTTTATACTTGGGTTCTAACCTGTTGCCT (site GTATATACTAG) | 0.0265
32 | GTTTATACTTGGGTTCTAACCTGTTGCCT (site GTCTATACTAG) | 0.091
33 | GTTTATACTTGGGTTCTAACCTGTTGCCT (site GTGTATACTAG) | 0.0593
34 | GTTTATACTTGGGTTCTAACCTGTTGCCT (site GTTTATACTAG) | 0.305
35 | GTTTCGTCTTGGGTTCTAACCTGTTGCCT (site GTTTCGACTAG) | 0.0118
36 | GTTTCGTCTTGGGTTCTAACCTGTTGCCT (site GTTTCGTCTAG) | 0.0924
37 | GTTTGACCTTGGGTTCTAACCTGTTGCGG (site GTTTGACCTCC) | 1.47
38 | GTTTGACCTTGGGTTCTAACCTGTTGCGG (site TAGCTGACTGG) | 0.0274
39 | GTTTGAGCTTGGGTTCTAACCTGTTGCCT (site GTTAGAGCTAG) | 0.231
40 | GTTTGAGCTTGGGTTCTAACCTGTTGCCT (site GTTCGAGCTAG) | 0.261
41 | GTTTGAGCTTGGGTTCTAACCTGTTGCCT (site GTTGGAGCTAG) | 0.05
42 | GTTTGAGCTTGGGTTCTAACCTGTTGCCT (site GTTTGAGCTAG) | 0.625
43 | TAAAAGCCTTGGGTTCTAACCTGTTGCCT (site TAAAAGACTAG) | 0.0773
44 | TAAAAGCCTTGGGTTCTAACCTGTTGCCT (site TAAAAGCCTAG) | 0.42

Row | Sequence | recombinant barcode read abundance (log10)
45 | TAAAAGCCTTGGGTTCTAACCTGTTGCCT (site TAAAAGGCTAG) | 0.0822
46 | TAAAAGCCTTGGGTTCTAACCTGTTGCCT (site TAAAAGTCTAG) | 0.224
47 | TAAATCACTTGGGTTCTAACCTGTTGCCG (site ACGTATGCTAT) | 0.0241
48 | TAAATCACTTGGGTTCTAACCTGTTGCCG (site TAAATCACTCG) | 0.281
49 | TAACGCTCTTGGGTTCTAACCTGTTGCCT (site AAACGCTCTAG) | 0.0696
50 | TAACGCTCTTGGGTTCTAACCTGTTGCCT (site TAACGCTCTAG) | 1.2
51 | TAACGGGCTTGGGTTCTAACCTGTTGCCG (site TAAAGGGCTAG) | 0.0666
52 | TAACGGGCTTGGGTTCTAACCTGTTGCCG (site TAACGGGCTCG) | 0.529
53 | TAACGTACTTGGGTTCTAACCTGTTGCTT (site TAAAGTACTAA) | 0.137
54 | TAACGTACTTGGGTTCTAACCTGTTGCTT (site TAACGTACTAA) | 0.641
55 | TAACGTACTTGGGTTCTAACCTGTTGCTT (site TAAGGTACTAA) | 0.109
56 | TAACGTACTTGGGTTCTAACCTGTTGCTT (site TAATGTACTAA) | 0.0185
57 | TAACTTACTTGGGTTCTAACCTGTTGCAT (site TAACATACTAT) | 0.179
58 | TAACTTACTTGGGTTCTAACCTGTTGCAT (site TAACCTACTAT) | 0.0991
59 | TAACTTACTTGGGTTCTAACCTGTTGCAT (site TAACGTACTAT) | 0.0567
60 | TAACTTACTTGGGTTCTAACCTGTTGCAT (site TAACTTACTAT) | 0.341
61 | TAAGATGCTTGGGTTCTAACCTGTTGCGG (site GCGACATCTAG) | 0.0149
62 | TAAGATGCTTGGGTTCTAACCTGTTGCGG (site TAAGATGCTCC) | 1.78
63 | TAAGGCCCTTGGGTTCTAACCTGTTGCTT (site TAAGGCCCTAA) | 1.56
64 | TAAGGCCCTTGGGTTCTAACCTGTTGCTT (site TCAGGCCCTAG) | 0.33
65 | TAAGTCCCTTGGGTTCTAACCTGTTGCCT (site AAAGTCCCTAG) | 0.233
66 | TAAGTCCCTTGGGTTCTAACCTGTTGCCT (site CAAGTCCCTAG) | 0.583

Row | Sequence | recombinant barcode read abundance (log10)
67 | TAAGTCCCTTGGGTTCTAACCTGTTGCCT (site GAAGTCCCTAG) | 0.017
68 | TAAGTCCCTTGGGTTCTAACCTGTTGCCT (site TAAGTCCCTAG) | 1.9
69 | TAATCGCCTTGGGTTCTAACCTGTTGCCT (site TAATCGACTAG) | 0.122
70 | TAATCGCCTTGGGTTCTAACCTGTTGCCT (site TAATCGCCTAG) | 0.126
71 | TAATCGCCTTGGGTTCTAACCTGTTGCCT (site TAATCGGCTAG) | 0.102
72 | TAATCGCCTTGGGTTCTAACCTGTTGCCT (site TAATCGTCTAG) | 0
73 | TAATCTCCTTGGGTTCTAACCTGTTGCGT (site GGTGGCTCTTG) | 0.0934
74 | TAATCTCCTTGGGTTCTAACCTGTTGCGT (site TAATCTCCTAC) | 0.167
75 | TAATGACCTTGGGTTCTAACCTGTTGCTT (site TAATGACCTAA) | 0.816
76 | TAATGACCTTGGGTTCTAACCTGTTGCTT (site TAATGACCTAT) | 0.123
77 | TAATGTACTTGGGTTCTAACCTGTTGCTT (site TAAAGTACTAA) | 0.0506
78 | TAATGTACTTGGGTTCTAACCTGTTGCTT (site TAACGTACTAA) | 0.0626
79 | TAATGTACTTGGGTTCTAACCTGTTGCTT (site TAAGGTACTAA) | 0.195
80 | TAATGTACTTGGGTTCTAACCTGTTGCTT (site TAATGTACTAA) | 0.0687
81 | TACAACACTTGGGTTCTAACCTGTTGCGT (site GTAGGTCCTCG) | 0.318
82 | TACAACACTTGGGTTCTAACCTGTTGCGT (site TACAACACTAC) | 1.71
83 | TACAAGTCTTGGGTTCTAACCTGTTGCGG (site TACAAGGCTCC) | 0.0774
84 | TACAAGTCTTGGGTTCTAACCTGTTGCGG (site TACAAGTCTCC) | 1.88
85 | TACACGACTTGGGTTCTAACCTGTTGCGG (site TACACGACTCC) | 1.51
86 | TACACGACTTGGGTTCTAACCTGTTGCGG (site TACACTACTCG) | 0
